Results as given in paper PMC9450014, “The evaluation of ADME and pharmacokinetic properties of decoquinate derivatives for the treatment of malaria” (Frontiers in Pharmacology, 2022).
Like-named read-outs stand apart in the source and are kept apart here.

Tests used:
[1] = In vivo pharmacokinetics, oral administration; parameters: species or system C57BL/6 mice; conditions: DQ quantified in whole blood after po 20 mg/kg of the O-carbamate, mice; for AUC0-∞ of DQ / Cmax: 20 mg/kg; for Cmax: read-out: Cmax of DQ
Experimental: Healthy C57BL/6 mice each weighing approximately 25 g were maintained at the University of Cape Town animal facility. Mice were housed in 27 × 21 × 28 cm cages (n = 3) under controlled environmental conditions at 22 ± 2°C, humidity of 55 ± 15% and a 12-hour light/dark cycle. Food and water were available ad libitum. Mice were acclimatised to the experimental environment for 4–5 days prior to initiating the experiments. RMB005, −059 and −060 were prepared in an aqueous solution of HPMC containing 0.2% Tween 80. The weighed compound was sonicated and vortexed to obtain a homogenous suspension. Oral dosing of 20 mg/kg was achieved via oral gavage. The total volume per administration was 200 μL. Blood samples were collected post-dose in lithium heparin microvials via tail bleeding at predetermined intervals at 0.5, 1, 3, 5, 8, 10, and 24 h. Samples were gently vortexed and stored at −80°C until analysis. A quantitative LC-MS/MS assay was used to determine whole-blood concentrations of RMB005, −059 and −060. Whole blood samples (20 μL) were treated with 100 μL ice cold acetonitrile containing the compound RMB073 used previously for determination of whole blood concentrations in analysis of TB-active compounds, as internal standard (200 ng/ml) ([Tanner et al., 2019]). The mixture was vortexed vigorously for 1 min, and 5 µL of the supernatant were injected onto the analytical column following centrifugation (5,590 g for 5 min). Gradient elution was carried out using a Gemini NX-C18 analytical column (5 μm, 2.1 mm × 50 mm). The aqueous mobile phase consisted of 5 mm ammonium acetate with 0.1% acetic acid in deionised water, while the organic phase consisted of 0.1% acetic acid in acetonitrile. A Shimadzu HPLC and reverse phase Gemini NX-C18 column coupled to an AB Sciex 3200 Q TRAP MS was operated at unit resolution in the multiple reaction monitoring (MRM) mode. […] The calibration standards ranged from 2 ng/mL to 3,000 ng/mL for RMB005, and 2 ng/mL to 4,000 ng/mL for RMB059, −060 and DQ. Drug concentration versus time plots for each compound were used to determine maximal drug concentration C max, time T max to reach C max, elimination half-life t 1/2 and the area under the concentration-time curve from time zero to infinity, AUC0-inf. From these values the following PK parameters—clearance CL, volume of distribution (Vd) and oral bioavailability (BA) were determined using the non-compartmental analysis Microsoft Excel Add-In PKSolver ([Zhang et al., 2010]).

[2] = In vivo pharmacokinetics, intravenous administration; parameters: species or system C57BL/6 mice; conditions: mice, 5 mg/kg per table footnote, 5 mg/kg; for t1/2 of DQ: DQ quantified in whole blood after iv dosing of the O-carbamate (RMB059 or RMB060); for CL of DQ / Vd of DQ: DQ quantified in whole blood after iv dosing of the O-carbamate
Experimental: Healthy C57BL/6 mice each weighing approximately 25 g were maintained at the University of Cape Town animal facility. Mice were housed in 27 × 21 × 28 cm cages (n = 3) under controlled environmental conditions at 22 ± 2°C, humidity of 55 ± 15% and a 12-hour light/dark cycle. Food and water were available ad libitum. Mice were acclimatised to the experimental environment for 4–5 days prior to initiating the experiments. […] The total volume of administration was 80 μL. Blood samples were collected post-dose in lithium heparin microvials via tail bleeding at predetermined intervals at 0.16, 0.5, 1, 3, 5, 8, 10, and 24 h. Samples were gently vortexed and stored at −80°C until analysis. A quantitative LC-MS/MS assay was used to determine whole-blood concentrations of RMB005, −059 and −060. Whole blood samples (20 μL) were treated with 100 μL ice cold acetonitrile containing the compound RMB073 used previously for determination of whole blood concentrations in analysis of TB-active compounds, as internal standard (200 ng/ml) ([Tanner et al., 2019]). The mixture was vortexed vigorously for 1 min, and 5 µL of the supernatant were injected onto the analytical column following centrifugation (5,590 g for 5 min). Gradient elution was carried out using a Gemini NX-C18 analytical column (5 μm, 2.1 mm × 50 mm). The aqueous mobile phase consisted of 5 mm ammonium acetate with 0.1% acetic acid in deionised water, while the organic phase consisted of 0.1% acetic acid in acetonitrile. A Shimadzu HPLC and reverse phase Gemini NX-C18 column coupled to an AB Sciex 3200 Q TRAP MS was operated at unit resolution in the multiple reaction monitoring (MRM) mode. […] The calibration standards ranged from 2 ng/mL to 3,000 ng/mL for RMB005, and 2 ng/mL to 4,000 ng/mL for RMB059, −060 and DQ. Drug concentration versus time plots for each compound were used to determine maximal drug concentration C max, time T max to reach C max, elimination half-life t 1/2 and the area under the concentration-time curve from time zero to infinity, AUC0-inf. From these values the following PK parameters—clearance CL, volume of distribution (Vd) and oral bioavailability (BA) were determined using the non-compartmental analysis Microsoft Excel Add-In PKSolver ([Zhang et al., 2010]).

[3] = Passive permeability, parallel artificial membrane permeation assay (PAMPA); type: in vitro ADME; conditions: donor pH 6.5, acceptor pH 7.4, 4 h, read-out: Permeability (LogPapp) (converted)
Experimental: A parallel artificial membrane permeation assay (PAMPA) was used to assess the passive permeability of compounds with a 96-well MultiScreen filter plate ([…] pore size, Millipore). The filter plate was precoated with 5% hexadecane in hexane. Stock solutions of compounds were diluted to 1 mM in a donor buffer (pH 6.5). Lucifer yellow was added to the apical wells of the precoated MultiScreen plate containing compound donor solution. The donor buffer solutions were spiked with each test compound (1 mM). The acceptor-buffer solution was prepared by adding 10 μL DMSO to 990 μL acceptor buffer (pH 7.4) and 250 μL were added to the basolateral (acceptor) wells. The donor plate was carefully inserted into the acceptor plate and incubated at room temperature for 4 h. After the incubation period, 50 μL of samples from the acceptor plate were transferred to a round bottom 96-well plate, together with 30 μL of donor buffer for matrix matching. Theoretical equilibrium samples for each test compound were prepared by adding 150 μL of donor solutions to 250 μL acceptor solutions and left at room temperature. These theoretical equilibrium samples represent complete transfer of the compound into the donor well. For the theoretical equilibrium samples, 80 μL were added to the analysis plate. Lastly, 160 μL of the internal standard carbamazepine (0.1 μM) was added to all acceptor and equilibrium samples. A portion of the sample containing Lucifer yellow was analyzed on a BioRad iMark^TM Microplate Absorbance Reader (BioRad, Hercules, CA, United States; excitation 490 nm, emission 510–570 nm) to determine that P app was within the acceptable range (<50 nm/s). Samples were analysed using reverse phase Gemini NX-C18 column (5 μM, 2.1 mm × 50 mm) with a Shimadzu HPLC coupled with an AB Sciex 3200 Q TRAP MS). The Papp for each compound was determined using. C=VD × VA/(VD+VA) ×A×t where VA = volume of donor compartment (0.15 cm^3), VD = volume of acceptor compartment (0.25 cm^3), A = accessible filter area (0.24 cm^2) and t = incubation time (14,400 s). […]

[4] = Lipophilicity, 1-octanol/phosphate buffer pH 7.4 (LogD7.4); type: physicochemical
Experimental: Stock solutions ([…]) of compounds were diluted to 100 μM in 96-well deep-well plate containing 1-octanol and phosphate buffer at pH 7.4. The plate was agitated on an orbital shaker at 750 rpm for 2 h. The organic and buffer layers of each well were transferred separately to a new analysis plate. The samples were analysed with the HPLC-diode array detection as described for kinetic solubility. Samples from both layers were analysed to determine LogD7.4 values.

[5] = Kinetic solubility in PBS (HPLC-DAD); type: physicochemical; conditions: phosphate buffer saline (PBS); for solubility kinetic at 2 h: aqueous buffer, kinetic from dmso stock
Experimental: Stock concentrations of test samples (10 mM) were prepared in DMSO and diluted to a final concentration of […] in phosphate buffer saline (PBS) solutions at pH 2, 6.5, and 7.4 in flat-bottomed 96-well plates. A three-point calibration curve of each control and test compound was prepared from stock solutions in DMSO. Plates were agitated on an orbital shaker at room temperature for 2 h at 200 rpm and subsequently analysed using a reverse phase Gemini NX-C18 column (5 μM, 2.1 mm × 50 mm) with an Agilent 1,200 Rapid Resolution HPLC and diode array detection.

[6] = system: multidrug resistant Pf K1; parameters: method as in Beteck et al., 2018; conditions: ref Beteck et al., 2018; read-out: IC50 against multidrug resistant Pf K1; cited from earlier work
[7] = system: multidrug resistant Pf W2; parameters: method as in Beteck et al., 2018; conditions: ref Beteck et al., 2018; read-out: Activity against multidrug resistant Pf W2; cited from earlier work
Pf NF54 = conditions: ref Beteck et al., 2018; read-out: IC50 against Pf NF54; cited from earlier work
[8] = Metabolic stability in human liver microsomes; type: in vitro ADME
Experimental: (§1) A 5-point metabolic stability assay in human and mouse liver microsomes were performed in duplicate in 96-well plates. Stock solution of RMB005, −059 and 060 prepared in DMSO were individually incubated at 37°C in mouse and pooled human liver microsomes (0.4 mg/mL). An aliquot was removed at 0 min and quenched with ice cold acetonitrile containing the internal standard carbamazepine (0.1 μM). The cofactor NADPH was added, and the reactions were subsequently stopped at time points 5, 10, 30, and 60 min by removal of an aliquot and quenching with ice cold acetonitrile containing the internal standard. The supernatant of all samples were analysed via LC-MS/MS analysis (reverse phase Gemini NX-C18 column and Shimadzu HPLC and AB Sciex 3200 Q TRAP MS). Calculation of in vitro t1/2, intrinsic clearance rate (CLint) and predicted in vivo clearance (CLH) was carried out using the following equations ([Obach 1999]). CLintClint= 0.693/t1/2(min) ×Volume of incubation (μL)/microsomal protein (μg) Where t1/2 is calculated in minutes.
(§2) Predicted in vivo CLH CLH=Q × fu(plasma)×CLint/fu(mic)/Q+ fu(plasma)× CLint/fu(mic) Where Q is the hepatic blood flow of mouse (90 mL/min/kg) or human (20.7 mL/min/kg). Fu(plasma) is the unbound drug fraction in the plasma and fu(mic) is the unbound fraction in the microsomes.
(§3) The equation below was used in the case of RMB059 and -060, where protein-binding data were not available. CLH=Q × CLint/Q+ CLint

[9] = Metabolic stability in mouse liver microsomes; type: in vitro ADME
Experimental: as §1, §2, §3

Plasma stability = type: in vitro ADME; conditions: human plasma
Experimental: Stock solutions of compounds in DMSO were used to spike pooled human plasma. Samples were transferred in duplicate to 6 different wells of a 96-deep well plate. An aliquot of each sample was immediately quenched with ice cold acetonitrile containing the internal standard carbamazepine (0.1 μM), after which the plate was incubated in a water bath (37°C for 1 h). Aliquots of samples were removed at 5, 15, 40, 60, and 180 min and quenched with ice cold acetonitrile. After samples of the final time point were precipitated, the supernatant was transferred to a round bottom 96-well plate for analysis by LC-MS/MS using a reverse phase Gemini NX-C18 column (5 μM, 2.1 mm × 50 mm) with a Shimadzu HPLC coupled with an AB Sciex 3200 Q TRAP MS). The peak area ratios were used to calculate the amount of parent compound remaining and t1/2 in plasma, using the following equations.
% Parent remaining % Parent= Normalised peak area of sample at timepoint/Normalised peak area of sample at t=0 x 100
Predicted t1/2 t1/2= −0.693/λ Where λ is the slope of the Ln % parent remaining vs. time curve.

[10] = *protein binding data not included

## CCCCCCCCCCOc1cc2c(O)c(C(=O)OCC)cnc2cc1OCC [DQ from RMB059]
[1]
  Tmax of DQ: 1.67 ± 0.67 h
  AUC0-∞ of DQ: 101 ± 44 µmol·min/L
  Cmax: 230 ± 50 nM
[2]
  t1/2 of DQ: 4.79 ± 1.66 h
  CL of DQ: 19.40 ± 3.14 mL/min/kg
  Vd of DQ: 8.00 ± 2.96 L/kg

## CCCCCCCCCCOc1cc2c(O)c(C(=O)OCC)cnc2cc1OCC [DQ from RMB060]
[1]
  Tmax of DQ: 1.67 ± 0.67 h
  AUC0-∞ of DQ: 63 ± 9 µmol·min/L
  Cmax: 110 ± 10 nM
[2]
  t1/2 of DQ: 4.66 ± 1.16 h
  CL of DQ: 21.50 ± 3.38 mL/min/kg
  Vd of DQ: 8.88 ± 2.87 L/kg

## CCCCCCCCCCOc1cc2c(OC(=O)N3CCOCC3)c(C(=O)OCC)cnc2cc1OCC [RMB059]
[3]
  Papp at 4 h, 1 mM: 1.58 ×10⁻⁶ cm/s
[4]
  logD at 2 h: 2.9
[5]; PBS pH 2, read-out: Kinetic solubility pH 2
  solubility kinetic at 2 h: < 5 µM
[5]; PBS pH 6.5, read-out: Kinetic solubility pH 6.5
  solubility kinetic at 2 h: < 5 µM
[5]; PBS pH 7.4, read-out: Kinetic solubility pH 7.4
  solubility kinetic at 2 h: < 5 µM
[5]; all pH levels tested (pH 2, 6.5, 7.4)
  solubility at 2 h: < 5 µM
[6]
  IC50: 14.4 nM
[7]
  IC50: 5.7 nM
Pf NF54
  IC50: 6.8 nM
[8]; [10]
  Estimated in vivo CLH HLM: 19.7* mL/min/kg
[8]; human, pooled liver microsomes, calculated from t1/2 in HLM, read-out: In vitro CLint HLM
  CLint scaled: 410 mL/min/kg
[8]; pooled liver microsomes, human liver microsomes, NADPH, read-out: Degradation half-life HLM
  half-life: 0.177 h
[9]; [10]
  Estimated in vivo CLH MLM: 75.2* mL/min/kg
[9]; mouse liver microsomes, NADPH, read-out: Degradation half-life MLM
  half-life: 0.277 h
[9]; mouse, liver microsomes, calculated from t1/2 in MLM, read-out: In vitro CLint MLM
  CLint scaled: 457 mL/min/kg
Plasma stability
  Plasma stability (in words): high degree of lability
Plasma stability; pooled plasma, 37°C
  half-life: 1.1 h
